According to EP3390549B1, “FORMULATIONS CONTAINING A SOLID SOLVENT” (Merck Patent GmbH, priority 2015, dated 2017):

Assay: Solubility limit of the solid (second) organic solvent in the liquid (first) organic solvent
Format: physicochemical
Conditions: dissolved at 40°C, stability on standing up to a week at 25°C
Source text: The differences between the Hansen Solubility parameter Hd, Hp and Hh of the first and the second solvent can be realized individually or collectively. In a very preferred embodiment, at least two and more preferred all the differences between the Hansen Solubility parameter Hd, Hp and Hh of the first and the second solvent are commonly realized.

[1] = in liquid solvent 3-Phenoxy toluene

| Solubility limit [1] | Solubility limit (in liquid solvent α-Pinene oxide) | Solubility limit (in liquid solvent β-Caryophyllene) | SMILES |
| --- | --- | --- | --- |
| >70% | – | – | O=C1CCCCCCCCCCCCCCO1 [ω-Pentadecalactone] |
| 55% | 60% | 35% | C=C1CC[C@H]2O[C@]2(C)CC[C@@H]2[C@@H]1CC2(C)C [Caryophyllene oxide] |
